Experiments:
YAC128 mice = assay: Toxicity on administration to YAC128 mice; type: in vivo; conditions: HD transgenic (YAC128) mice
Protocol: (§1) YAC128 mice were bred with females from their background strain (B6CBAFI/J), and offspring were genotyped using PCR as previously described. All mice were weighed at 3 weeks of age and equally distributed according to weight and percentage within each cohort. […] The biochemical and behavioural/neuropathological symptoms of mice were determined after 4 weeks of drug administration. These procedures were performed in accordance with Guide for the Care and Use of Laboratory Animals guidelines. The animal protocol was approved by IACUC (Institutional Animal Care and Use Committee) in Hanyang University, Ansan, Republic of Korea.

striatum of YAC128 mice [1] = assay: Histology and immunohistochemistry of the striatum of YAC128 mice (Nissl, H3K9me3, DARPP-32, calbindin, DAPI, SUV39H1); type: in vivo, mouse
Protocol: as §1
Immunofluorescence staining and confocal microscopy was used to determine the trimethylated-histone H3 (Lys9) (H3K9me3) (Millipore, Billerica, MA) (1:1000). The procedures were performed as previously described. The specimens were incubated for 1 h with Alexa Fluor 594 goat anti-rabbit antibody (abcam, Cambridge, UK; 1:400) after incubation of the primary antibody. Images were analysed using an A1 Nikon confocal laser scanning microscope (Nikon, Tokyo, Japan).
DARPP-32 is a dopamine- and cAMP-regulated neuronal phosphoprotein, which plays an important role in dopamine neurotransmission. Its expression is severely impaired in the striatum of YAC128 mice compared with that of WT mice.
White nodes are interacting genes with the seed genes identified by the network analysis algorithm of IPA. The network represented dense connections between the epigenome associated with chromatin modification (such as Suv39h1, Mecp2, KDM5c, etc.), transcription regulation (such as Elk1, Foxp4, Hoxa6, Dhx9, etc.), metabolic process (such as Acsl4, Fbp2, Nat2, etc.), and signal transduction pathways (such as Cnksr2, Dusp9, Rab9, etc.) (Figure 8(d)). Especially, SUV39H1, a histone H3K9 methyltransferase, was closely associated with signalling pathways and other modules (Figure 8(d)). We further verified that SUV39H1 immunoreactivity was markedly elevated in YAC128 mice (Figure 8(e)).

striatum of YAC128 mice [2] = assay: Acid histone extraction and Western blot of H3K9 methylation in the striatum of YAC128 mice; type: in vivo, mouse; conditions: YAC128 mice vs vehicle-treated YAC128 mice
Protocol: Cells were homogenised with Dounce homogeniser in […] of phosphate-buffered saline containing 0.4 mM sodium butyrate, 5% Triton X-100, 3 mM DTT, 1 mM sodium orthovanadate, 5 mM sodium fluoride, 3 mM PMSF, 3 mM DTT, 0.5 mg/ml leupeptin, and 10 mg/ml aprotinin as previously described. The nuclear pellets were collected and washed twice with the above-described 5% Triton buffer. Histones were extracted by solubilising in […] of 0.2 M HCl on a shaker for 2 h. After neutralising the pH of the acid-extracted solution containing the histone pool with ammonium acetate, the protein content was quantified. […] After releasing the vacuum, the nitrocellulose membrane was removed and washed twice with TBS-T for 5 min. Then, the nitrocellulose membrane was blocked with 5% milk/TBS-T for 30 min and subsequently incubated with primary antibody in 5% milk/TBS-T for 24 h at cold room. The nitrocellulose membrane was washed twice with TBS-T for 5 min and incubated with secondary antibody in 1% milk (15 ml) for one hour at room temperature. […]
YAC128 mice were bred with females from their background strain (B6CBAFI/J), and offspring were genotyped using PCR as previously described. […] The biochemical and behavioural/neuropathological symptoms of mice were determined after 4 weeks of drug administration. […]

SETDB1/ESET promoter = SETDB1/ESET promoter assay; type: cell-based; conditions: neuronal cells transfected with SETDB1 promoter construct, 0 to 20 µM
Protocol: STHdh^Q7/Q7 (wild type) and STHdh^Q111/Q111 (HD knock-in striatal cell line expresses mutant huntingtin at endogenous level) were generously provided from Dr. Marcy MacDonald (Harvard Medical School, Boston, MA)[35]. The SETDB1/ESET promoter assay was performed as previously described[24]^,[28]. Briefly, 2.5 × 10^5 cells were plated onto 48-well cell culture plates 24 h prior to the transfection of 200 ng of ETDB1/ESET promoter construct. DMRIE-C reagent (Invitrogen, Carlsbad, CA) was used as a transfection reagent and transfections were performed according to the manufacturer’s protocol. Nogalamycin and distamycin were purchased from Sigma-Aldrich (St. Louis, MO).
(§2) Moreover, the promoter assay was carried out.

Q111 cells = assay: FRET-based histone H3K9 methylation biosensor live cell imaging
Protocol: Fluorescence resonance energy transfer (FRET)-based histone H3K9 methylation biosensor was previously described. In brief, H3K9 biosensor is composed of a methyl-lysine binding domain of HP1 protein and a H3 tail peptide containing lysine9 between ECFP and YPet, and the NLS sequences were added in the C-terminal for the nucleus localisation of the biosensor. For the image acquisition, Q7 or Q111 cells were cultured on cover-glass-bottom dishes and the H3K9 biosensor was transfected into the cells using Lipofectamine 2000 (Invitrogen, Carlsbad, CA) according to the manufacturer’s protocols. Images were collected by a Nikon Ti-E inverted microscope with 420DF20 excitation filter, 450DRLP dichroic mirror, and two emission filters (475DF40 for ECFP and 535DF25 for YPet) controlled by a filter changer. Image analysis was performed using NIS element-AR software. Nucleus regions were selected as the regions of interests and the emission ratio of ECFP and YPet was calculated after background subtraction. The colour of each pixel was determined by the ECFP/YPet ratio value.
as §2

**Q.** Which toxicity (YAC128 mice) does the source give for `C=CCOc1cccc2nc(N3CCCC3)ccc12` [APQ, 5-allyloxy-2-(pyrrolidin-1-yl)quinoline] here?
**A.** minimal toxicity

**Q.** What about the “DARPP-32 expression in the striatum” value (striatum of YAC128 mice [1]) of the same molecule?
**A.** considerably improved

**Q.** What about the “immunoreactive intensity of calbindin stained neurons” value (striatum of YAC128 mice [1]) of the same molecule?
**A.** increased

**Q.** And the “nuclei size of medium spiny neurons (DAPI)” value (striatum of YAC128 mice [1])?
**A.** restores

**Q.** What about the “H3K9me3 immunoreactivity in striatal neurons” value (striatum of YAC128 mice [1]; comparable to the level of WT controls) of the same molecule?
**A.** significantly reduced

**Q.** And the “level of SUV39H1 (immunoreactivity) in striatal neurons” value (striatum of YAC128 mice [1]; similar to the level in WT mice)?
**A.** significantly reduced

**Q.** And the “neuronal atrophy / size of striatal medium spiny neurons (Nissl staining)” value (striatum of YAC128 mice [1]; striatum)?
**A.** significantly restored

**Q.** What about the “H3K9me3, H3K9me1 and H3K9me2 levels in the striatum (Western blot)” value (striatum of YAC128 mice [2]) of the same molecule?
**A.** selectively decreased H3K9me3 levels but not H3K9me1 or H3K9me2 levels

**Q.** And the “transcriptional activity of SETDB1 (promoter assay)” value (SETDB1/ESET promoter)?
**A.** represses the transcriptional activity of SETDB1 in a dose-dependent manner

**Q.** What about the “FRET/ECFP ratios of H3K9 methylation” value (Q111 cells) of the same molecule?
**A.** effectively modulates
